Source: US10919896B2, “Preparation and uses of pyrimidinone derivatives” (Cancer Research Technology Limited, priority 2016, dated 2021)

What was measured:
[1] = molecular target: Cdc7/Dbf4 (Homo sapiens, UniProt O00311); assay: Cdc7 Biochemical Assay Method 3: Cdc7/Dbf4 Enzyme TR-FRET Assay measuring pS40MCM2; conditions: 1 μM ATP, read-out: Biochemical Method 3 (pIC50) (converted)
How it was run: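 TR-FRET read-out (terbium anti-rabbit donor, streptavidin-Alexa Fluor488 acceptor, anti-Mcm2 pS40 antibody) of peptide phosphorylation after 120 min at 25° C; reaction held 1 μM ATP, 100 nM biotin-tagged peptide substrate and 2.5 nM enzyme complex.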

[2] = tested on: Cdc7 (pS40MCM2 levels in HCT116 cells); assay: Cdc7 Cell Pharmacodynamics Assay Method 2A: pS40MCM2 levels in HCT116 cells, 6 hours; assay type: cell-based; conditions: Homo sapiens, HCT-116, read-out: Biomarker Method 2A (pEC50) (converted)
From the text: (§1) This protocol describes a method to investigate the inhibition of Cdc7 activity by measuring pS40MCM2 levels in cells, after treatment with compounds.
(§2) • HCT116 cells (ATCC, #CCL-247) • McCoys 5A with L-glutamine (Cellgro, #10-050-CV) • 10% FCS (Cellgro, #35-010-CV) • D-PBS without CaCl2 and MgCl2 (Cellgro, #21-031-CV) • Trypsin/EDTA (Cellgro, #25-052-CL) • BSA (Calbiochem, 126593) • Cell Extraction Buffer (Invitrogen FNN0011) • Protease inhibitor cocktail (Sigma P-2714) • PMSF 0.3M stock in DMSO (Sigma P7626) • Antibody-rabbit pMCM2 Ser40 (Abcam, AB133243) • Antibody-goat MCM2 (Bethyl #A300-122A) • Antibody-goat Anti Rabbit IgG HRP (Thermo, 31462) • SuperSignal ELISA Pico Chemiluminescent Substrate (Perbio Science UK Ltd 37069) • 10×PBS (Growcells, MRGF-6236) • Triton X100 (Sigma, P-T8787) • DMSO (Fisher, D128-1) • 2-Propanol (J. T. Baker, 9095-03) Method • Seed 1×10^6 HCT116 cells into each of two 175 cm^2 flask containing 30 mL Cell Growth Media and incubate at 37° C., 5% CO2 for 3 days. • Harvest the cells from one T175 cm^2 flask and count. • Dilute with Cell Growth Media to a cell density of 2×10^5. Dispense 100 μL to each well (20,000 HCT116 cells/well) of TC treated 96-well plate(s). • Allow cells to settle overnight in incubator set at 37° C. and 5% CO2. • Cell treatment: Transfer 0.25 μL/well from the compound plate to the wells of the cell plate(s). This is a 1:400 dilution of compound in the assay. • Once all cells are treated place the cells back to the incubator and incubate for either 6 hours (Method 2A) or 18 hours (Method 2B). • Dilute the capture antibody (total MCM2#A300-122A) 1 in 250 in the required volume of PBS (5 mL per assay plate, plus 5 mL for dead volume) and add 50 μL to each well of a Hybond plate except wells A12 & B12. Seal the plate and incubate at room temperature for a minimum of 2 hours. • Defrost aliquot of Invitrogen Cell Extraction Buffer (FNN0011) on ice and supplement with appropriate volume of both Sigma protease inhibitor cocktail (P-2714) and PMSF (final conc 1 mM from a 1 M stock in DMSO). • After the 6 hour or 18 hour cell treatment time, tap out the media from the assay plates and place them in the −70° C. freezer for at least 5 minutes. • Flick out the remaining liquid in the previously prepared capture Ab plate(s) and add 200 μL 2% BSA per well. Incubate for 1 hour at room temperature. • Remove plates from freezer and add 20 μL of ice cold complete lysis buffer. Incubate cells for 30 minutes at 4° C. • Add 30 μL per well 2% BSA • At the end of the 1 hour incubation, wash the Capture/ELISA plate(s) with Wash Buffer on the BioTek plate washer. • Transfer 40 μL per well of the lysis plate(s) to the same wells in the Capture/ELISA plate. Incubate cells overnight at 4° C. • At the end of the overnight incubation, wash the ELISA plate(s) with Wash Buffer on BioTek plate washer. • Prepare Detection Antibody Buffer and dispense 50 μL to all wells of ELISA plate(s) except wells G1 & H1. Cover plate and incubate at room temperature for 2 hours with gentle shaking. • At the end of the 2 hour incubation, wash the ELISA plate(s) with Wash Buffer on the BioTek plate washer. • Prepare the Conjugated Antibody Buffer and dispense 50 μL to all wells of ELISA plate(s). • Cover the plate and incubate at room temperature for 1 hour with gentle shaking. • At the end of the 1 hour incubation, wash the ELISA plate(s) with Wash Buffer on the BioTek plate washer. • Prepare Substrate Buffer and dispense 50 μL to all wells of ELISA plate(s). • Incubate for a minimum of 10 minutes and read plates on the EnVision 2100 Multilabel Reader (Mirror: Luminescence (404) & Luminescence 700 (212); Measurement Height: 6.5 mm; Measurement Time: 0.2 s). Method 3

[3] = tested on: Cdc7 (pS40MCM2 levels in HCT116 cells); assay: Cdc7 Cell Pharmacodynamics Assay Method 2B: pS40MCM2 levels in HCT116 cells, 18 hours; assay type: cell-based; conditions: Homo sapiens, HCT-116, read-out: Biomarker Method 2B (pEC50) (converted)
From the text: as §1, §2

[4] = tested on: Cdc7 (pS53MCM2 levels in SW48 cells); assay: Cdc7 Cell Pharmacodynamics Assay Method 3: pS53MCM2 levels in SW48 cells, 6 hours; assay type: cell-based; conditions: Homo sapiens, SW48, 6 h, read-out: Biomarker Method 3 (pEC50) (converted)
From the text: This protocol describes a method to investigate the inhibition of Cdc7 activity by measuring pS53MCM2 levels in cells, after treatment with compounds.
• SW48 cells • RPMI 1640 (Sigma, R5886) • 10% FCS (Sera Laboratories International Ltd, EU000F Batch:108005) • 100× L-Glutamine (Invitrogen, 25030-024) • D-Glucose Solution (10%) (Sigma, G8644) • HEPES Buffer Solution (Sigma, 83264) • Sodium Pyruvate (Sigma, S8636) • PBS (Fisger, BP399-4) • Trypsin/EDTA (Invitrogen 25300-054) • 2% BSA in PBS • Cell Extraction Buffer (Invitrogen FNN0011) • Protease inhibitor cocktail (Sigma P-2714) • PMSF 0.3M stock in DMSO (Sigma P7626) • Antibody-rabbit pMCM2 Ser53 (Bethyl #A300-756A) • Antibody-goat MCM2 (Bethyl #A300-122A) • Antibody-goat Anti Rabbit IgG HRP (Perbio Science UK Ltd 31462) • SuperSignal ELISA Pico Chemiluminescent Substrate (Perbio Science UK Ltd 37070) Method • Plate 30,000 SW48 cells per well in standard TC treated 96 well plate in 100 μL complete RPMI 1640 medium. • Allow cells to settle overnight in incubator set at 37° C. and 5% CO2. • Cell treatment: prepare a 384 well plate containing 80 μl PBS/well. The PBS should be at room temperature—to be referred to as intermediate plate. Transfer 2 μL of compound from mother plate to intermediate (daughter plate) 1:40 dilution, then 5 μL intermediate to cell (daughter) plate. • Once all cells are treated place the cells back to the incubator and incubate for 6 hours. • Dilute the capture antibody (total MCM2#A300-122A) 1 in 250 in the required volume of PBS (5 mL per assay plate, plus 5 mL for dead volume) and add 50 μL to each well of a Hybond plate. Seal the plate and incubate at room temperature for a minimum of 2 hours. • Defrost aliquot of Invitrogen Cell Extraction Buffer (FNN0011) on ice and supplement with appropriate volume of both Sigma protease inhibitor cocktail (P-2714) and PMSF (final conc 1 mM from a 1 M stock in DMSO). • After the 6 hour cell treatment time, tap out the media from the assay plates and place them in the −80° C. freezer for at least 5 minutes. • Remove plates from freezer and add 20 μL of ice cold complete lysis buffer, with the multidrop. Incubate cells for 30 minutes at 4° C. • Add 80 μL per well 2% BSA. • Flick out the remaining liquid from the capture plate and transfer 80 μL from the lysis plate to the same wells in the capture/ELISA plate, using the Biomek. Cover with plate seal and incubate plates overnight at 4° C. • Wash plates with PBS, remove any residual remaining liquid and add 50 μL per well of pMCM2 Ser53 antibody (#A300-756A) diluted 1 in 100 in 2% BSA. Cover plate and incubate at room temperature for 2 hours with gentle shaking. • Wash plates with PBS, remove any residual remaining liquid and Incubate with 50 μL goat anti rabbit antibody (1 in 800 dilution in 2% BSA), for 1 hour at room temperature. • Wash plates with PBS, remove any residual remaining liquid and add 50 μL mixed SuperSignal Pico substrate. • Incubate each plate for 5 minutes at room temperature shielding the plates from direct light (with a cover plate). Read plates with the luminescent detection.

Sequence of Cdc7/Dbf4 (O00311 whole entry): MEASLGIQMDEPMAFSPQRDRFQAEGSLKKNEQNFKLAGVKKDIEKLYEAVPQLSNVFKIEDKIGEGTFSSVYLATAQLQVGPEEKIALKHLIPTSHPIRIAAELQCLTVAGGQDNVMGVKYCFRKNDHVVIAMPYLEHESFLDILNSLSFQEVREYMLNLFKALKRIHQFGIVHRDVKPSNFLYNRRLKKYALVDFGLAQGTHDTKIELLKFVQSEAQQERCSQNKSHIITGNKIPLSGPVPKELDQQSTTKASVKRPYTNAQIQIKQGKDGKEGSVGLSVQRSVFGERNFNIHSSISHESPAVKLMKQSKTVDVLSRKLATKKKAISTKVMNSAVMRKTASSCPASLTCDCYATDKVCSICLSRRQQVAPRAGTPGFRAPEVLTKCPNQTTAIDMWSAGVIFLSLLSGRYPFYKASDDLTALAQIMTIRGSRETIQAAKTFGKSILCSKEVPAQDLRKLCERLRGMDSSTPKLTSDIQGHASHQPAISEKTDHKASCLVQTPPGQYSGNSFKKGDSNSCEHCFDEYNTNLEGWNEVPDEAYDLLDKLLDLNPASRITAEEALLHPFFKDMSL
Sequence of Cdc7/Dbf4 (Q9UBU7 whole entry partner): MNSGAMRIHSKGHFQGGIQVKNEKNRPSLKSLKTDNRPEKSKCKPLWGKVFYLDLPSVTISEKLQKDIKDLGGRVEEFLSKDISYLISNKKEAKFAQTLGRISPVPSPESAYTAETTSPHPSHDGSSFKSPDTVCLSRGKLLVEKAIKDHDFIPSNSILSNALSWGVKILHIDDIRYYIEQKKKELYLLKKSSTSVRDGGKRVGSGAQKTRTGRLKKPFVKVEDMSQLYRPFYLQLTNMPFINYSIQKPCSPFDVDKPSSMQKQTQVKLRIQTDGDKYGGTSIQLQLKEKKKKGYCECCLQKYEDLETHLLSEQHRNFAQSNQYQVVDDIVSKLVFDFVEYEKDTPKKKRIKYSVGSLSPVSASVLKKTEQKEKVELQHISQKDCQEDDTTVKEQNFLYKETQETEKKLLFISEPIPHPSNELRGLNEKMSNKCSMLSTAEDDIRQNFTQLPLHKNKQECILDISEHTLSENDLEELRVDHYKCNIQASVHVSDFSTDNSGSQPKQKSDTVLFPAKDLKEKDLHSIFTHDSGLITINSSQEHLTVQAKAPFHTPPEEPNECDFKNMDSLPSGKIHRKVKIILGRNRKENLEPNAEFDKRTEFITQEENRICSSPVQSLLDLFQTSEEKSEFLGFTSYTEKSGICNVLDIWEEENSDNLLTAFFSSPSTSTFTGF

IC50 [1] [nM] | EC50 [2] [nM] | EC50 [4] [nM] | Structure (SMILES) | EC50 [3] [nM]
0.575 | 3.89 |  | C[C@@H]1COCCN1c1nc(-c2ccnc(F)c2)[nH]c(=O)c1Cl [Compound 328] | 
1.23 | 347 |  | C[C@H]1COCCN1c1nc(-c2ccnc(F)c2)[nH]c(=O)c1Cl [Compound 333] | 87.1
0.49 | 40.7 |  | C[C@H]1CNCCN1c1nc(-c2ccnc(F)c2)[nH]c(=O)c1Cl [Compound 326] | 
2.95 | 363 |  | O=C1CCCN(c2nc(-c3ccnc(F)c3)[nH]c(=O)c2Cl)CC1 [Compound 203] | 
1.74 | 170 |  | N[C@H]1CCCCN(c2nc(-c3ccnc(F)c3)[nH]c(=O)c2Cl)C1 [Compound 188] | 
0.708 | 741 |  | O=c1[nH]c(-c2ccnc(F)c2)nc(N2CCNCC(O)C2)c1Cl (stereo not shown) [Compound 190] | 
1.2 | 1120 |  | N[C@@H]1CN(c2nc(-c3ccnc(F)c3)[nH]c(=O)c2Cl)CC[C@H]1O [Compound 235] | 
1.38 | 38.9 |  | O=C1CCN(c2nc(-c3ccnc(F)c3)[nH]c(=O)c2Cl)CC1 [Compound 234] | 
0.513 | 148 |  | N[C@@H]1CCCCN(c2nc(-c3ccnc(F)c3)[nH]c(=O)c2Cl)C1 [Compound 183, 4-[(3R)-3-aminoazepan-1-yl]-5-chloro-2-(2-fluoro-4-pyridyl)-1H-pyrimidin-6-one 2,2,2-trifluoroacetic acid] | 
2.4 | 316 |  | CN[C@H]1CCCN(c2nc(-c3ccnc(F)c3)[nH]c(=O)c2Cl)C1 [Compound 197] | 
1.41 | 275 |  | CC[C@@H]1CN(c2nc(-c3ccnc(F)c3)[nH]c(=O)c2Cl)CCO1 [Compound 205] | 
0.479 |  | 110 | CC1(C)COCCN1c1nc(-c2ccnc(F)c2)[nH]c(=O)c1Cl [Compound 339] | 10.7
1.02 | 2000 |  | CC(=O)NC1CCN(c2nc(-c3ccnc(F)c3)[nH]c(=O)c2Cl)CC1 [Compound 232] | 977
0.0977 |  | 562 | O=c1[nH]c(-c2ccnc(F)c2)nc(N2CCCNCC2)c1Cl [Compound 206] | 39.8
0.646 | 339 |  | O=C1CNCCN(c2nc(-c3ccnc(F)c3)[nH]c(=O)c2Cl)C1 [Compound 412, 1-[5-chloro-2-(2-fluoro-4-pyridyl)-6-oxo-1H-pyrimidin-4-yl]-1,4-diazepan-6-one 2,2,2-trifluoroacetic acid] | 
0.617 | 38 |  | NC1CN(c2nc(-c3ccnc(F)c3)[nH]c(=O)c2Cl)CCC1F (mixture of isomers) [Compound 252] | 
1.91 | 72.4 |  | CN[C@@H]1CCCN(c2nc(-c3ccnc(F)c3)[nH]c(=O)c2Cl)C1 [Compound 196] | 

Structure (SMILES) | IC50 [1] [nM] | EC50 [2] [nM] | EC50 [4] [nM] | EC50 [3] [nM]
O=c1[nH]c(-c2ccnc(F)c2)nc(N2CCC3NCCC32)c1Cl (stereo not shown) [Compound 243] | 2 | 288 |  | 
O=c1[nH]c(-c2ccnc(F)c2)nc(N2CCC3CCNCC32)c1Cl (stereo not shown) [Compound 221] | 2.88 | 1620 |  | 562
O=c1[nH]c(-c2ccnc(F)c2)nc(N2CCC3NCCCC32)c1Cl (stereo not shown) [Compound 223] | 2.88 | 56.2 |  | 47.9
O=c1[nH]c(-c2ccnc(F)c2)nc(N2C3CCC2COC3)c1Cl [Compound 192] | 0.813 | 89.1 |  | 49
O=c1[nH]c(-c2ccnc(F)c2)nc(N2C3CCCC2COC3)c1Cl [Compound 334] | 0.724 | 135 |  | 61.7
